The values that follow come from patent US5154930A, “Pharmacological agent-lipid solution preparation” (The Liposome Company, Inc., priority 1988, dated 1992).

Series [1] is described as follows: Salting in: solubility in absolute ethanol with and without egg phosphatidylcholine. Type of series: physicochemical. Particulars: for salting in / form of apparent solubility / increase in solubility or apparent solubility (co-solubilizing or salting-in): lipid in lipid solvent. As for the experimental part:
To determine whether phospholipids can increase the solubility or apparent solubility of a pharmacological agent such as salicylic acid acetate, both drug and lipid were co-solubilized in a lipid solvent such as absolute ethanol (USP). Five ml of this lipid solvent was able to dissolve about a maximum of 1 gr. salicylic acid acetate. A lipid such as egg phosphatidylcholine was completely dissolved in 5 ml of ethanol in a series of test tubes and to this solution crystals of the test pharmacological agent salicylic acid acetate were added gradually and dissolved. […] Any convenient temperature and pressur may be used for this procedure that will dot adversely affect the pharmacological agent or boil the lipid solvent.
Five ml of absolute ethanol was able to dissolve maximum 1 gr. salicylic acid acetate. Egg phosphatidylcholine (Hepar) 1.5 gm was completely dissolved in 5 ml of ethanol in a series of test tubes and to this solution crystals of salicylic acid acetate were added gradually and dissolved. […] To accelerate the dissolving process all test tubes containing crystals of salicylic acid acetate and lipid solvent were agitated gently in a water bath of 40° C. and cooled to about 22.5° C.+/- about 2.5° C. after crystals were completely dissolved.

A short description of series [2]: Stability of agent to water (hydrolysis) in ethanol. Type of series: physicochemical. Particulars: water even at about 5% in ethanol.

With `C[C@@H]1[C@H](O)[C@@H](C)/C=C/C=C/C=C/C=C/C=C/C=C/C=C/[C@H](O[C@@H]2O[C@H](C)[C@@H](O)[C@H](N)[C@@H]2O)C[C@@H]2O[C@](O)(C[C@@H](O)C[C@@H](O)[C@H](O)CC[C@@H](O)C[C@@H](O)CC(=O)O[C@H]1C)C[C@H](O)[C@H]2C(=O)O` [amphotericin B], the results for the “salting in / form of apparent solubility” value in series [1] and in series [1] (listed as Amphoteracin B) were “in the form of a complex with dissolved lipid rather than truly solubilized” and “similarly salted in but appears to do so in the form of complexes with lipid rather than simple solubilizing”, respectively.

In the case of `COc1ccc2c(c1)c(CC(=O)O)c(C)n2C(=O)c1ccc(Cl)cc1` [indomethacin], the “increase in solubility of drug (salting in)” value in series [1] (egg phosphatidylcholine ethanol versus ethanol) is on record as “about 50%”. The “increase in solubility or apparent solubility (co-solubilizing or salting-in)” value in series [1] is listed as no more than 50%.

`CC(=O)Oc1ccccc1C(=O)O` [salicylic acid acetate]: the “tolerance of water (hydrolysis)” value in series [2] was “do not tolerate the presence of water even at about 5% in ethanol”. In series [1], the “maximum amount dissolved in absolute ethanol” value is recorded as roughly 1 gr and the “increase in solubility or apparent solubility (co-solubilizing or salting-in)” value was no more than 50%.
